# Data taken from patent publication US9352015B2, “Antimicrobial peptides” (priority 2009, dated 2016).
# Key:
# human erythrocytes = assay: Hemolytic activity against human erythrocytes (HC50 / MHC, microtiter dilution); assay type: cell-based; settings: V681 analog studies
# [1] = RP-HPLC temperature profiling (peptide self-association parameter PA); assay type: physicochemical; settings: enantiomer pairs of V681 analogs, 5° C. to 80° C., relative to peptide C
# Procedure, shortened: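 Peptide retention was profiled by RP-HPLC at pH 2 from 5 °C to 80 °C in 3 °C increments, using a linear gradient of 0.5% acetonitrile/min. The monomeric random-coil control peptide C profile was subtracted. PA is the maximum change in retention time relative to control C; higher PA means greater self-association.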
smiles,measurement,setting,value
"CC[C@@H](C)[C@@H](NC(=O)[C@@H](C)NC(=O)[C@@H](CCCCN)NC(=O)[C@@H](CC(C)C)NC(=O)[C@@H](C)NC(=O)[C@H](NC(=O)[C@@H](Cc1c[nH]cn1)NC(=O)[C@@H](CC(C)C)NC(=O)[C@H](NC(=O)[C@H](NC(=O)[C@@H](CCCCN)NC(=O)[C@@H](CCCCN)NC(=O)[C@@H](C)NC(=O)[C@@H](CO)NC(=O)[C@@H](CCCCN)NC(=O)[C@@H](Cc1ccccc1)NC(=O)[C@H](NC(=O)[C@@H](CCCCN)NC(=O)[C@@H](CC(C)C)NC(=O)[C@@H](Cc1ccccc1)NC(=O)[C@@H](CO)NC(=O)[C@@H](CCCCN)NC(=O)[C@@H](Cc1c[nH]c2ccccc12)NC(=O)[C@@H](CCCCN)NC(C)=O)[C@H](C)O)[C@H](C)O)C(C)C)[C@H](C)O)C(=O)N[C@H](CO)C(=O)N[C@H](CO)C(N)=O [Peptide D1, Ac-KWKSFLKTFKSAKKTVLHTALKAISS-amide]","Hemolytic activity, minimal hemolytic concentration (MHC)",human erythrocytes,non-hemolytic
same,PA (peptide self-association parameter),[1],2.1
